Test results published in article PMC2788236 (The Journal of infectious diseases, 2009).

Key:
[1] = tested on: western equine encephalitis virus replicon; assay: microbe, parasite or virus in culture; assay type: cell-based
Fort Morgan virus (FMV) [2] = assay type: cell-based
Sindbis virus (SINV) = assay: microbe, parasite or virus in culture; conditions: BE(2)-C, 48 h, read-out: cell viability of SINV-infected cells
Fort Morgan virus (FMV) [3] = tested on: Fort Morgan virus (FMV)
Fort Morgan virus (FMV) [4] = assay: microbe, parasite or virus in culture; conditions: BE(2)-C, 48 h, read-out: cell viability of FMV-infected cells

| SMILES | selectivity index (CC50/IC50 ratio) [1] | suppression of fLUC expression [1] | IC50, dose-response analysis (SAR, figure 4) [1] | also measured |
| --- | --- | --- | --- | --- |
| NC(=O)c1ncn([C@@H]2O[C@H](CO)[C@@H](O)[C@H]2O)n1 [ribavirin] | 19 | ~ 80% | – | IC50 ([1]; Western equine encephalitis virus, BSR-T7/5, read-out: IC50, inhibition of fLUC activity): 16 µM |
| O=C(NCc1ccccc1)C1CCN(C(=O)c2cc3sccc3n2Cc2ccc(F)cc2)CC1 [CCG32088] | – | – | submicromolar | – |
| O=C(NCc1ccco1)C1CCN(C(=O)c2cc3sccc3n2Cc2ccc(F)cc2)CC1 [CCG32091, 1-({4-[(4-fluorophenyl)methyl]-4H-thieno[3,2-b]pyrrol-5-yl}-carbonyl)-N-(furan-2-ylmethyl)piperidine-4-carboxamide] | > 20 | – | – | suppression of infectious FMV production (Fort Morgan virus (FMV) [2]): > 90%; viability at 12.5 µM (Sindbis virus (SINV)): 50%; concentration effectively suppressing FMV-induced cytopathic effect (as low as) (Fort Morgan virus (FMV) [3]): ≤ 3 µmol/L; viability at 12.5 µM (Fort Morgan virus (FMV) [4]): 70% |
| COc1c(C)c2c(c(O)c1C/C=C(\C)CCC(=O)O)C(=O)OC2 [mycophenolic acid] | – | ~ 80% | – | – |
| O=C(NCc1ccco1)C1CCN(C(=O)c2cc3sccc3n2Cc2ccc(Cl)cc2)CC1 [CCG32095] | – | – | submicromolar | – |
